Source: publication PMC4450297, “Screening Active Compounds from Garcinia Species Native to China Reveals Novel Compounds Targeting the STAT/JAK Signaling Pathway” (BioMed Research International, 2015)

Assays:
Experiment in all cases: Cell panel screen (CellTiter-Glo)
Type in all cases: cell-based, human
NCI-H1694 = NCI-H1694 (Lung), 20 micromolar, 72 hrs
Method in brief: (§1)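 Percent growth inhibition at one concentration (20 μM final) after 72 h treatment, derived from cellular ATP luminescence and normalised between DMSO-treated cells and wells lacking cells.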

J82 = J82 (Urinary bladder), 20 micromolar, 72 hrs
Method in brief: as §1

SW13 = SW13 (Adrenal gland), 20 micromolar, 72 hrs
Method in brief: as §1

C3A = C3A (Liver), 20 micromolar, 72 hrs
Method in brief: as §1

HCC1599 = HCC1599 (Breast), 20 micromolar, 72 hrs
Method in brief: as §1

BT-549 = BT-549 (Breast), 20 micromolar, 72 hrs
Method in brief: as §1

MSTO-211-H = MSTO-211-H (Lung), 20 micromolar, 72 hrs
Method in brief: as §1

ChaGo-K-1 = ChaGo-K-1 (Lung), 20 micromolar, 72 hrs
Method in brief: as §1

HT-1197 = HT-1197 (Urinary bladder), 20 micromolar, 72 hrs
Method in brief: as §1

NCI-H2347 = NCI-H2347 (Lung), 20 micromolar, 72 hrs
Method in brief: as §1

RL95 = RL95 (Uterus), 20 micromolar, 72 hrs
Method in brief: as §1

HCC1937 = HCC1937 (Breast), 20 micromolar, 72 hrs
Method in brief: as §1

T98G = T98G (Brain), 20 micromolar, 72 hrs
Method in brief: as §1

Bel-7402 = Bel-7402 (Liver), 20 micromolar, 72 hrs
Method in brief: as §1

BT-474 = BT-474 (Breast), 20 micromolar, 72 hrs
Method in brief: as §1

T47D = T47D (Breast), 20 micromolar, 72 hrs
Method in brief: as §1

HCC1395 = HCC1395 (Breast), 20 micromolar, 72 hrs
Method in brief: as §1

A704 = A704 (Kidney), 20 micromolar, 72 hrs
Method in brief: as §1

HPAF-II = HPAF-II (Pancreas), 20 micromolar, 72 hrs
Method in brief: as §1

Colo 205 = conditions: Colo 205, 20 micromolar, 72 hrs
Method in brief: as §1

C8166 = C8166 (Leukemia), 20 micromolar, 72 hrs
Method in brief: as §1

CCF-STTG1 = CCF-STTG1 (Brain), 20 micromolar, 72 hrs
Method in brief: as §1

HGC-27 = HGC-27 (Stomach), 20 micromolar, 72 hrs
Method in brief: as §1

M059J = M059J (Brain), 20 micromolar, 72 hrs
Method in brief: as §1

NCI-H28 = NCI-H28 (Lung), 20 micromolar, 72 hrs
Method in brief: as §1

ZR-75-30 = ZR-75-30 (Breast), 20 micromolar, 72 hrs
Method in brief: as §1

NCI-H2405 = NCI-H2405 (Lung), 20 micromolar, 72 hrs
Method in brief: as §1

A498 = A498 (listed under Lung), 20 micromolar, 72 hrs
Method in brief: as §1

NCI-H1623 = NCI-H1623 (Lung), 20 micromolar, 72 hrs
Method in brief: as §1

TCCSUP = TCCSUP (Urinary bladder), 20 micromolar, 72 hrs
Method in brief: as §1

CW-2 = CW-2 (Colon), 20 micromolar, 72 hrs
Method in brief: as §1

HEC-1-A = HEC-1-A (Uterus), 20 micromolar, 72 hrs
Method in brief: as §1

NCI-H1770 = NCI-H1770 (Lung), 20 micromolar, 72 hrs
Method in brief: as §1

NCI-H524 = NCI-H524 (Lung), 20 micromolar, 72 hrs
Method in brief: as §1

HCC1569 = HCC1569 (Breast), 20 micromolar, 72 hrs
Method in brief: as §1

Panc 03.27 = Panc 03.27 (Pancreas), 20 micromolar, 72 hrs
Method in brief: as §1

| SMILES | Percent Inhibition (NCI-H1694) | Percent Inhibition (J82) | Percent Inhibition (SW13) | Percent Inhibition (C3A) | Percent Inhibition (HCC1599) | Percent Inhibition (BT-549) | Percent Inhibition (MSTO-211-H) | Percent Inhibition (ChaGo-K-1) | Percent Inhibition (HT-1197) | Percent Inhibition (NCI-H2347) | Percent Inhibition (RL95) | Percent Inhibition (HCC1937) | Percent Inhibition (T98G) | Percent Inhibition (Bel-7402) | Percent Inhibition (BT-474) | Percent Inhibition (T47D) | Percent Inhibition (HCC1395) | Percent Inhibition (A704) | Percent Inhibition (HPAF-II) | Percent Inhibition (Colo 205) | also measured |
| --- | --- | --- | --- | --- | --- | --- | --- | --- | --- | --- | --- | --- | --- | --- | --- | --- | --- | --- | --- | --- | --- |
| O=c1c2cc(O)ccc2oc2cccc(O)c12 [Gof3] | 29% | 20% | 33% | 7% | 36% | 16% | 36% | 12% | 28% | 20% | 42% | 8% | 27% | 45% | 7% | 10% | 35% | 23% | 15% | 22% | Percent Inhibition (C8166): 29%; Percent Inhibition (CCF-STTG1): 31%; Percent Inhibition (HGC-27): 34%; Percent Inhibition (M059J): 53%; Percent Inhibition (NCI-H28): 27%; Percent Inhibition (ZR-75-30): 41%; Percent Inhibition (NCI-H2405): -13%; Percent Inhibition (A498): 39%; Percent Inhibition (NCI-H1623): -7%; Percent Inhibition (TCCSUP): 32%; Percent Inhibition (CW-2): 39%; Percent Inhibition (HEC-1-A): 19%; Percent Inhibition (NCI-H1770): 17%; Percent Inhibition (NCI-H524): 18%; Percent Inhibition (HCC1569): 29%; Percent Inhibition (Panc 03.27): 7% |
| COc1c(O)c(O)c2c(=O)c3c(CC=C(C)C)c(CC=C(C)C)c(O)c(O)c3oc2c1CC=C(C)C [Compound N-7] | 25% | 17% | -14% | 24% | 8% | -14% | -1% | 4% | 13% | -18% | -16% | -5% | 17% | 15% | -21% | -9% | 22% | 1% | 9% | 9% | Percent Inhibition (C8166): 10%; Percent Inhibition (CCF-STTG1): 6%; Percent Inhibition (HGC-27): 0%; Percent Inhibition (M059J): 10%; Percent Inhibition (NCI-H28): 21%; Percent Inhibition (ZR-75-30): -11%; Percent Inhibition (NCI-H2405): -7%; Percent Inhibition (A498): 13%; Percent Inhibition (NCI-H1623): -8%; Percent Inhibition (TCCSUP): 18%; Percent Inhibition (CW-2): 22%; Percent Inhibition (HEC-1-A): -17%; Percent Inhibition (NCI-H1770): -6%; Percent Inhibition (NCI-H524): -30%; Percent Inhibition (HCC1569): 5%; Percent Inhibition (Panc 03.27): -24% |
| COC(=O)C1OC(Oc2cc(O)c3c(=O)cc(-c4ccc(O)cc4)oc3c2)C(O)C(O)C1O (stereo not drawn) [WZ-6] | -9% | -5% | 1% | -1% | 12% | -16% | 6% | -16% | 16% | -3% | -5% | 3% | 4% | 1% | -12% | 4% | 21% | -9% | -14% | 4% | Percent Inhibition (C8166): -15%; Percent Inhibition (CCF-STTG1): -3%; Percent Inhibition (HGC-27): -8%; Percent Inhibition (M059J): 2%; Percent Inhibition (NCI-H28): 6%; Percent Inhibition (ZR-75-30): -2%; Percent Inhibition (NCI-H2405): -12%; Percent Inhibition (A498): 13%; Percent Inhibition (NCI-H1623): -8%; Percent Inhibition (TCCSUP): 8%; Percent Inhibition (CW-2): 12%; Percent Inhibition (HEC-1-A): 1%; Percent Inhibition (NCI-H1770): -1%; Percent Inhibition (NCI-H524): -11%; Percent Inhibition (HCC1569): -18%; Percent Inhibition (Panc 03.27): -4% |
| CC(C)=CCc1c2c(c(O)c3c(=O)c4c(CC=C(C)C)c(O)c(O)cc4oc13)C=CC(C)(C)O2 [bn-4, Bannaxanthone D] | 97% | 94% | 94% | 63% | 97% | 96% | 94% | 93% | 89% | 53% | 96% | 89% | 97% | 94% | 83% | 80% | 96% | 94% | 73% | 93% | Percent Inhibition (C8166): 96%; Percent Inhibition (CCF-STTG1): 86%; Percent Inhibition (HGC-27): 86%; Percent Inhibition (M059J): 90%; Percent Inhibition (NCI-H28): 85%; Percent Inhibition (ZR-75-30): 81%; Percent Inhibition (NCI-H2405): 92%; Percent Inhibition (A498): 84%; Percent Inhibition (NCI-H1623): 80%; Percent Inhibition (TCCSUP): 92%; Percent Inhibition (CW-2): 97%; Percent Inhibition (HEC-1-A): 76%; Percent Inhibition (NCI-H1770): 75%; Percent Inhibition (NCI-H524): 98%; Percent Inhibition (HCC1569): 92%; Percent Inhibition (Panc 03.27): 88% |
| CC(C)=CCc1c(O)cc2oc3cc(O)c(O)c(CCC(C)(C)O)c3c(=O)c2c1O [bn-16, Garcinone C] | 99% | 85% | 96% | 43% | 94% | 74% | 93% | 91% | 85% | 73% | 69% | 80% | 91% | 91% | 83% | 62% | 94% | 62% | 75% | 97% | Percent Inhibition (C8166): 88%; Percent Inhibition (CCF-STTG1): 65%; Percent Inhibition (HGC-27): 77%; Percent Inhibition (M059J): 78%; Percent Inhibition (NCI-H28): 71%; Percent Inhibition (ZR-75-30): 94%; Percent Inhibition (NCI-H2405): 73%; Percent Inhibition (A498): 65%; Percent Inhibition (NCI-H1623): 67%; Percent Inhibition (TCCSUP): 88%; Percent Inhibition (CW-2): 95%; Percent Inhibition (HEC-1-A): 61%; Percent Inhibition (NCI-H1770): 87%; Percent Inhibition (NCI-H524): 98%; Percent Inhibition (HCC1569): 81%; Percent Inhibition (Panc 03.27): 86% |
